Test results as given in PubChem BioAssay AID2060890 (Molecular Pharmacology Branch, DTP, NCI, 2025).

Tested on: LG0703-F948-PDC complex spheroid viability
Experiment: Anticancer human tumor LG0703-F948-PDC patient-derived lung adenocarcinoma cell line growth inhibition [RAS]
Details: for IC50: curve of first compound; for viability, T/C: stronger effect = lower value
How it was run: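 Multi-cell-type spheroids: tumor cells plus HUVEC endothelial cells and mesenchymal stem cells. RAS-pathway inhibitors were combined with targeted agents, each dosed in half-log steps down from clinical Cmax, or from 10 microM when Cmax was unknown.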
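Also: spheroids exposed to agents for 7 days.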
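For viability, T/C in this document: 100% = DMSO vehicle wells.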

CC1(O)CCCC1n1c(=O)c(C(F)F)cc2cnc(NC3CCN(S(C)(=O)=O)CC3)nc21 (centres undefined) + C#Cc1c(F)ccc2cc(O)cc(-c3ncc4c(N5CC6CCC(C5)N6)nc(OCC56CCCN5CC(F)C6)nc4c3F)c12
IC50 (second compound 0.0316 µM): 6.15 µM | IC50 (second compound 0.1 µM): 7.25 µM | IC50 (second compound 0.316 µM): 5.04 µM | IC50 (second compound 1 µM): 5.73 µM | IC50 (second compound 3.16 µM): 4.26 µM | IC50 (second compound 10 µM): 3.94 µM | viability, T/C (second compound 0.0316 µM, first compound 0.0316 µM): 109% | viability, T/C (second compound 0.0316 µM, first compound 0.1 µM): 92.2% | viability, T/C (second compound 0.0316 µM, first compound 0.316 µM): 97.8% | viability, T/C (second compound 0.0316 µM, first compound 1 µM): 87% | viability, T/C (second compound 0.0316 µM, first compound 3.16 µM): 77.1% | viability, T/C (second compound 0.0316 µM, first compound 10 µM): 31.6% | viability, T/C (second compound 0.1 µM, first compound 0.0316 µM): 131% | viability, T/C (second compound 0.1 µM, first compound 0.1 µM): 109% | viability, T/C (second compound 0.1 µM, first compound 0.316 µM): 82.4% | viability, T/C (second compound 0.1 µM, first compound 1 µM): 76.3% | viability, T/C (second compound 0.1 µM, first compound 3.16 µM): 87.7% | viability, T/C (second compound 0.1 µM, first compound 10 µM): 29.5% | viability, T/C (second compound 0.316 µM, first compound 0.0316 µM): 83.9% | viability, T/C (second compound 0.316 µM, first compound 0.1 µM): 72.4% | viability, T/C (second compound 0.316 µM, first compound 0.316 µM): 74.5% | viability, T/C (second compound 0.316 µM, first compound 1 µM): 65.9% | viability, T/C (second compound 0.316 µM, first compound 3.16 µM): 69.4% | viability, T/C (second compound 0.316 µM, first compound 10 µM): 23.9% | viability, T/C (second compound 1 µM, first compound 0.0316 µM): 78.3% | viability, T/C (second compound 1 µM, first compound 0.1 µM): 82.7% | viability, T/C (second compound 1 µM, first compound 0.316 µM): 88.3% | viability, T/C (second compound 1 µM, first compound 1 µM): 67.1% | viability, T/C (second compound 1 µM, first compound 3.16 µM): 86.7% | viability, T/C (second compound 1 µM, first compound 10 µM): 21.3% | viability, T/C (second compound 3.16 µM, first compound 0.0316 µM): 71.5% | viability, T/C (second compound 3.16 µM, first compound 0.1 µM): 62% | viability, T/C (second compound 3.16 µM, first compound 0.316 µM): 69.1% | viability, T/C (second compound 3.16 µM, first compound 1 µM): 61.6% | viability, T/C (second compound 3.16 µM, first compound 3.16 µM): 63% | viability, T/C (second compound 3.16 µM, first compound 10 µM): 13.6% | viability, T/C (second compound 10 µM, first compound 0.0316 µM): 50% | viability, T/C (second compound 10 µM, first compound 0.1 µM): 71.3% | viability, T/C (second compound 10 µM, first compound 0.316 µM): 55.2% | viability, T/C (second compound 10 µM, first compound 1 µM): 62.9% | viability, T/C (second compound 10 µM, first compound 3.16 µM): 65.1% | viability, T/C (second compound 10 µM, first compound 10 µM): 4.24%

CC1(C)CCC(Nc2ncc(C(F)(F)F)c(-c3c[nH]c4c(P(C)(C)=O)c(C#N)ccc34)n2)CN1 (centres undefined) + CCn1c(-c2cc(N3CCN(C)CC3)cnc2C(C)OC)c2c3cc(ccc31)-c1csc(n1)CC(NC(=O)C1CC1C)C(=O)N1CCCC(N1)C(=O)OCC(C)(C)C2
IC50 (second compound 0.000949 µM): > 0.3 µM | IC50 (second compound 0.003 µM): < 0.000949 µM | IC50 (second compound 0.00949 µM): < 0.000949 µM | IC50 (second compound 0.03 µM): < 0.000949 µM | IC50 (second compound 0.0949 µM): < 0.000949 µM | IC50 (second compound 0.3 µM): < 0.000949 µM | viability, T/C (second compound 0.000949 µM, first compound 0.000949 µM): 70.9% | viability, T/C (second compound 0.000949 µM, first compound 0.003 µM): 58.2% | viability, T/C (second compound 0.000949 µM, first compound 0.00949 µM): 54.9% | viability, T/C (second compound 0.000949 µM, first compound 0.03 µM): 64.2% | viability, T/C (second compound 0.000949 µM, first compound 0.0949 µM): 69.8% | viability, T/C (second compound 0.000949 µM, first compound 0.3 µM): 66% | viability, T/C (second compound 0.003 µM, first compound 0.000949 µM): 50.5% | viability, T/C (second compound 0.003 µM, first compound 0.003 µM): 38.7% | viability, T/C (second compound 0.003 µM, first compound 0.00949 µM): 43.2% | viability, T/C (second compound 0.003 µM, first compound 0.03 µM): 39% | viability, T/C (second compound 0.003 µM, first compound 0.0949 µM): 40.1% | viability, T/C (second compound 0.003 µM, first compound 0.3 µM): 44.5% | viability, T/C (second compound 0.00949 µM, first compound 0.000949 µM): 27.3% | viability, T/C (second compound 0.00949 µM, first compound 0.003 µM): 26.4% | viability, T/C (second compound 0.00949 µM, first compound 0.00949 µM): 25.1% | viability, T/C (second compound 0.00949 µM, first compound 0.03 µM): 31.8% | viability, T/C (second compound 0.00949 µM, first compound 0.0949 µM): 26.6% | viability, T/C (second compound 0.00949 µM, first compound 0.3 µM): 33.8% | viability, T/C (second compound 0.03 µM, first compound 0.000949 µM): 15.2% | viability, T/C (second compound 0.03 µM, first compound 0.003 µM): 14.4% | viability, T/C (second compound 0.03 µM, first compound 0.00949 µM): 17.2% | viability, T/C (second compound 0.03 µM, first compound 0.03 µM): 19.4% | viability, T/C (second compound 0.03 µM, first compound 0.0949 µM): 18.3% | viability, T/C (second compound 0.03 µM, first compound 0.3 µM): 20.3% | viability, T/C (second compound 0.0949 µM, first compound 0.000949 µM): 12.3% | viability, T/C (second compound 0.0949 µM, first compound 0.003 µM): 11.9% | viability, T/C (second compound 0.0949 µM, first compound 0.00949 µM): 12.3% | viability, T/C (second compound 0.0949 µM, first compound 0.03 µM): 12.9% | viability, T/C (second compound 0.0949 µM, first compound 0.0949 µM): 14.1% | viability, T/C (second compound 0.0949 µM, first compound 0.3 µM): 9.28% | viability, T/C (second compound 0.3 µM, first compound 0.000949 µM): 9.53% | viability, T/C (second compound 0.3 µM, first compound 0.003 µM): 9.6% | viability, T/C (second compound 0.3 µM, first compound 0.00949 µM): 8.69% | viability, T/C (second compound 0.3 µM, first compound 0.03 µM): 12.3% | viability, T/C (second compound 0.3 µM, first compound 0.0949 µM): 12.7% | viability, T/C (second compound 0.3 µM, first compound 0.3 µM): 10.1%
